Results: patent US12247022B2, “Combinations for treatment of NASH/NAFLD and related diseases” (Pfizer Inc., priority 2018, dated 2025)

Columns and labels:
Format in all cases: in vivo, rat
SREBP-1 = test: Nuclear SREBP-1 localization in liver (Western blot, normalized to Histone 2B), Western diet fed rats; details: high dose (Compound A 10 mg/kg QD, Compound D 30 mg/kg BID); pooled liver samples per group
Description: A randomized, vehicle-controlled, 8-parallel arm study was conducted in male Sprague-Dawley rats (Charles River (Boston, MA)) to obtain circulating and hepatic TG levels. Standard laboratory conditions were used to house 96 rats (˜200 g); they were double housed and kept under 12:12-hour reverse light-dark schedule (lights off at 8:00 AM). Rats were randomized into chow or Western diet groups and dose groups upon arrival and were given a 14-day lead-in period on either standard rat chow or Western diet prior to the start of the study. Standard Laboratory Rodent chow diet, 5053, was from LabDiet (PMI, St Louis, Missouri). Western Diet, D12079Bi, was from Research Diets (New Brunswick, New Jersey). […]
Nuclear and Membrane fractions were prepared by ultracentrifugation using standard methods from a portion of the pulverized liver samples, that were pooled per treatment group. Samples from the nuclear extract and the membrane fractions were analyzed by Western blotting for SREBP1. […] Nuclear SREBP1 levels were quantified using relative units and normalized to Histone 2B to control for sample loss during the nuclear fractionation and gel loading.

[1] = tested on: Western diet fed Sprague Dawley rats; test: Hepatic triglyceride (steatosis), Western diet fed rats; details: oral, Day 28
Description: A randomized, vehicle-controlled, 8-parallel arm study was conducted in male Sprague-Dawley rats (Charles River (Boston, MA)) to obtain circulating and hepatic TG levels. Standard laboratory conditions were used to house 96 rats (˜200 g); they were double housed and kept under 12:12-hour reverse light-dark schedule (lights off at 8:00 AM). Rats were randomized into chow or Western diet groups and dose groups upon arrival and were given a 14-day lead-in period on either standard rat chow or Western diet prior to the start of the study. Standard Laboratory Rodent chow diet, 5053, was from LabDiet (PMI, St Louis, Missouri). Western Diet, D12079Bi, was from Research Diets (New Brunswick, New Jersey).
Starting on Day 1 of the study, rats were dosed orally (10 mL/kg) with either vehicle control (0.5% MC (wt/volume %) in dionized water), low or high doses of Compound A (1 mg/kg or 10 mg/kg QD, respectively), low or high doses of Compound D (5 mg/kg or 30 mg/kg BID respectively), or co-administration of low doses (Compound A at 1 mg/kg QD and Compound D at 5 mg/kg BID), or co-administration of high doses (Compound A at 10 mg/kg QD and Compound D at 30 mg/kg BID)
On the last day of the study (Day 28), rats were sacrificed for tissue collection after a 4 hour fast, 2 hours post-dose: two hours post-dose, blood for determining plasma analytes was collected via lateral tail vein and then the animals were sacrificed by CO2 asphyxiation. Blood was transferred to BD Microtainer tubes coated with K2EDTA (PN365974), centrifuged at 4° C. and the plasma transferred to a 96-well microtitre plate and stored at −20° C. Livers were rapidly removed, freeze-clamped in a Wollenberg clamp pre-cooled in liquid N2 individually wrapped in aluminum foil and subsequently stored at −80° C.
Tissue pulverization: Frozen livers were rapidly pulverized on an aluminum block cooled in liquid N2, ensuring the tissue remained frozen throughout the pulverization. The pulverized tissues were transferred and stored in 7 mL polypropylene conical tubes at −80° C. until analysis.
Extraction for hepatic triglyceride: Approximately 50 to 100 mg of pulverized tissue was added to a 2 mL lysing matrix D tube (MP Bio) containing 800 μL ice cold 1:1 CHCl3:MEOH. Samples were immediately extracted at 4° C. using Qiagen Tissue Lyser II (Qiagen Cat No. 85300) for 4 minutes at 30 Hz. The homogenate was then transferred to 13×100 mm glass tubes and placed on ice. The lysis tubes were then rinsed with 800 μL of 1:1 CHCl3:MeOH, vortexed for 30 seconds and added to the 13×100 mm glass tubes. While on ice, 2.4 ml of 100% CHCl3 was added to all glass vials to bring the ratio of CHCl3:MeOH to 4:2. Samples were then placed in the −20° C. freezer overnight. […]

COL1A1 = test: Hepatic COL1A1 gene expression (qPCR), CDAHFD fed rats; details: twice daily for 6 weeks, Compound A 5 mg/kg, Compound D 30 mg/kg, or co-administration, Actb
Description: A randomized, vehicle-controlled, 5-parallel arm study was conducted in male Wistar-Han rats (Charles River (Boston, MA)) fed a choline-deficient and high fat diet (CDAHFD) (Research diets; A16092003) to identify differences in improvements in markers of hepatic inflammation and fibrosis when administering either Compound A or Compound D alone as monotherapy or in combination. Standard laboratory conditions were used to house 60 rats (˜200 g); they were double housed and kept under 12:12-hour reverse light-dark schedule (lights off at 8:00 AM). Rats were fed choline deficient and high fat diet (CDAHFD) beginning 6-weeks prior to initiation of the study. Rats, randomized into 4 dosing groups (n=12/group), received twice daily administration of vehicle, Compound A (5 mg/kg) monotherapy, Compound D (30 mg/kg) monotherapy, or co-administration Compound A (5 mg/kg) and Compound D (30 mg/kg) for a period of 6-weeks. […] Histology was assessed following 6-weeks of drug administration which corresponded to 12 weeks on the CDAHFD. […]
Following the 12-weeks on CDAHFD, the animals were sacrificed by CO2 asphyxiation. […] A portion of the pulverized liver sample from each animal was processed and analyzed for gene expression markers of fibrogenesis. Rat taqman probes against […]SMA and COL1A1 were all assessed using Actb as housekeeping gene on qPCR.

[2] = high dose (Compound A 10 mg/kg QD; Compound D 30 mg/kg BID; or both co-administered)
[3] = low dose (Compound A 1 mg/kg QD; Compound D 5 mg/kg BID; or both co-administered)

Compound	nuclear localization of SREBP-1, relative to vehicle treated Western diet fed rats (SREBP-1)	reduction in steatosis (hepatic triglyceride), relative to vehicle administered Western diet fed rats [1, 2] [%]	reduction in steatosis (hepatic triglyceride), relative to vehicle administered Western diet fed rats [1, 3] [%]	hepatic collagen A1A (COL1A1) gene expression (COL1A1)
COc1cc(C(=O)N2CCC3(CC2)CC(=O)c2c(cnn2C(C)C)C3)cc(-c2ccc(C(=O)O)cc2)n1 [Compound A, 4-(4-(1-isopropyl-7-oxo-1,4,6,7-tetrahydrospiro[indazole-5,4′-piperidine]-1′-carbonyl)-6-methoxypyridin-2-yl)benzoic acid]	increased nuclear localization of SREBP-1	53	36	reduced
CCOc1cccnc1Oc1cncc(-c2ncc(C(=O)N[C@H]3CCOC3)cn2)c1 [Compound D, (S)-2-(5-((3-ethoxypyridin-2-yl)oxy)pyridin-3-yl)-N-(tetrahydrofuran-3-yl)pyrimidine-5-carboxamide]	reduced SREBP-1 nuclear localization	30	25	reduced
